Consider two compounds from article PMC4236014, “Intestine-Targeted DGAT1 Inhibition Improves Obesity and Insulin Resistance without Skin Aberrations in Mice” (PLoS ONE, 2014).

The Tmax is the time at which the peak concentration occurs. Usually fraction unbound stands for the share of the substance not bound to proteins or other matrix. A low value points to little free substance. What is called logD is lipophilicity at a set pH, counting ionised and neutral species. Higher therefore signals higher lipophilicity. A word on the IC50: it is the midpoint of a concentration-inhibition curve.

“And” between values parts separate entries of the source, which are not always exact repeats. Equal values may be shown once. “Also recorded” adds a separate entry of the source.

One data set concerns mouse skin homogenates. The experiment in a line: Triglyceride synthesis in mouse skin homogenates. The class given is biochemical.
In a further data set the test system is HT-29 human colon cells. The experiment in a line: Triglyceride synthesis in HT-29 cells (14C oleic acid incorporation). Type of data set: cell-based. The following applies: Compound A 0.3 to 3 µM, Compound B 0.1 to 3 µM. On the procedure: (§1) The HT-29 cell line (American Type Culture Collection, Manassas, VA) was maintained in the McCoy’s 5A medium (Life Technologies, Carlsbad, CA) containing 10% fetal bovine serum. The HepG2 cell line (American Type Culture Collection) was maintained in the Dulbecco’s Modified Eagle Medium (Sigma-Aldrich, St. Louis, MO) containing 10% fetal bovine serum. For the experiments, the HT-29 cells were plated in 12-well plates at 3×10^5 cells, the HepG2 cells were plated in 12-well plates at 5×10^5 cells. The cells were cultured in serum-free media for 24 h, and incubated with a compound and oleic acid-albumin (Sigma-Aldrich) solubilized in dimethyl sulfoxide (final 0.1%) for 30 min. The triglyceride synthesis was initiated by the addition of ^14C oleic acid (0.2 µCi). The cells were washed in PBS and harvested into the organic phase using hexane:2-propanol (3∶2) 30 min after initiation of the triglyceride synthesis. The solvent was evaporated, the extracts were solubilized in chloroform, and lipids were separated via TLC. Incorporation of the radiolabel into the triglyceride fraction was analyzed using BAS2000 in triplicate. The IC50 of each compound was calculated using GraphPad Prism.

A short description of data set [1]: Compound distribution in mice (plasma, skin, intestine) after oral 30 mg/kg. The class given is in vivo, C57BL/6J mice. The conditions noted are these: for Tmax / concentration at 24 h / Kp / Cmax: C57BL/6J, mouse; for Tmax: in vivo; for concentration at 24 h: intestine, 24 h after administration, read-out: C 24 in intestine; for Kp: intestine/plasma, read-out: Intestine/Plasma ratio at T max; for Cmax: plasma, read-out: C max in plasma; for Cmax / C max in intestine / C max in skin: 3 mice. How it is done:
Exposure was analyzed using blood, skin, and intestine samples from the C57BL/6J mice orally treated with 30 mg/kg of a compound. At 1, 4, 8, and 24 h after the administration, mice were anesthetized with isoflurane, and blood, skin, and intestine samples were collected. Three mice were used in each group. The blood samples were collected with sodium heparin, subjected to centrifugation, and plasma samples were collected. The skin and the intestine were homogenized and centrifuged to collect samples. The compound concentrations in each tissue sample with values equal to or greater than the lower limit of quantification (LLOQ; 0.005 µg/ml) were used for analyses (HPLC-MS/MS: Shiseido, Tokyo, Japan, Thermofisher Scientific, Waltham, MA).

Data set [2] in a line: mouse plasma protein binding. Type of data set: in vitro ADME.
Data set [3] deals with skin of diet-induced-obese (DIO) mice. The experiment in a line: Effects on the skin in diet-induced-obese (DIO) mice, 4-week treatment, histopathology. Type of data set: in vivo, C57BL/6J mice. The conditions noted are these: 4 weeks; for skin aberrations (histopathology): oral, 30 mg/kg Compound A once daily, 30 mg/kg Compound B twice daily, 30 mg/kg. On the procedure:
After 10 weeks on high-fat diet, mice became obese (36±0.24 g). […] After 4 weeks of the treatment, all the animals were sacrificed. The skin (dorsolateral lesion) was removed and then fixed in 10% neutral buffered formalin, processed, embedded in paraffin, cut into thin sections and stained with Hematoxylin and Eosin. Histopathological examinations were performed. The size of the sebaceous glands were measured using WinROOF (Mitani Corporation, Tokyo, Japan).

Another data set can be described thus: Log D (lipophilicity). The class given is physicochemical.
Another data set has as its system HepG2 human liver cells. The data set can be described thus: Triglyceride synthesis in HepG2 cells (14C oleic acid incorporation). Type of data set: cell-based. The following applies: Compound A 0.3 to 3 µM, Compound B 0.1 to 3 µM. How it is done:
as §1

The target in the next data set is T1, mouse DGAT1 (Mus musculus, UniProt Q9Z2A7).
T1 construct: made in house; host or cells: Sf9 insect cells (baculovirus)
T1 sequence (Q9Z2A7 1-498): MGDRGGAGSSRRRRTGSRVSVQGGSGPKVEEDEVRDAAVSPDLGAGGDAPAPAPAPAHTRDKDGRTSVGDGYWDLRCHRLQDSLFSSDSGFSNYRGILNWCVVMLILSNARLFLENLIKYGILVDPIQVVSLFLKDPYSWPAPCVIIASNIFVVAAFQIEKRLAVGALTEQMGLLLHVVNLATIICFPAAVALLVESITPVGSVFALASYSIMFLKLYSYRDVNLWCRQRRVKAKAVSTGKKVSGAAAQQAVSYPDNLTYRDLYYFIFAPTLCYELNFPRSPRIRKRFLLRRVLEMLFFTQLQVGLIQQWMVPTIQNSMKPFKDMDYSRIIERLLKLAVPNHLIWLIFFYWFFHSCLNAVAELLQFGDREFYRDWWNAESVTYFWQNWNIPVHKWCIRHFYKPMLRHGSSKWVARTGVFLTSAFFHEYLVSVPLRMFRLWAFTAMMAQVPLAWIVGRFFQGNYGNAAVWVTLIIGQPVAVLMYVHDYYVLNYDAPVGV
The experiment in a line: DGAT1 enzyme assay (mouse DGAT1 in Sf9 insect microsomes, 14C decanoyl CoA). The conditions noted are these: enzyme expressed in insect microsomes; read-out: mDGAT1 IC50. The class given is biochemical. On the procedure: (§2) The effects of the DGAT1 inhibitors were assessed using human (BC015762 from HeLa cell) and mouse DGAT1 (NM_010046 from mouse testis) in Sf9 insect microsomes. […] The Sf9 cells were homogenized and centrifuged at 600 g for 20 min. Thereafter, the supernatant was centrifuged at 10000 g for 1 h and the precipitate was collected as the […].
(§3) The mixture was incubated at room temperature for 45 min. The reaction was stopped by adding 0.5 M HCl and the incubated mixture was filtered using MultiscreenHTS-FB (Millipore, Billerica, MA). The human DGAT1 activity was quantified by counting the radioactivity of synthesized ^14C triglycerides by the Microbeta scintillation counter (PerkinElmer, Waltham, MA) in duplicate. […] Mouse DGAT1 enzyme assays were carried out in the same way.

Another data set concerns the target T2, human DGAT1 (Homo sapiens, UniProt O75907).
T2 construct: made in house; host or cells: Sf9 insect cells (baculovirus)
T2 sequence (O75907 1-488): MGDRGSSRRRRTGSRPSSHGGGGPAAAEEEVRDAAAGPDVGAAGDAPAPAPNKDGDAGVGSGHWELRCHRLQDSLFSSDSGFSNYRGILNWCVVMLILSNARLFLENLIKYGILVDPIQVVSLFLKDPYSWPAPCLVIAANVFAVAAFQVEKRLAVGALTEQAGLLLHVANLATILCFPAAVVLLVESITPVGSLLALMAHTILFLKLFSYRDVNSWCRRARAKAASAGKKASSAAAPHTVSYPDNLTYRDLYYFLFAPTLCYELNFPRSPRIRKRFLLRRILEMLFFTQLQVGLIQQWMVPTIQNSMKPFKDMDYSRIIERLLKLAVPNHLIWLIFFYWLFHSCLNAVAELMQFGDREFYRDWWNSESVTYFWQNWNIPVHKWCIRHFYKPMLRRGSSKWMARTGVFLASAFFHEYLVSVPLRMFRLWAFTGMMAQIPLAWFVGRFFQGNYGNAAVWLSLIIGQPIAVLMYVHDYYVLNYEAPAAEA
The data set can be described thus: DGAT1 enzyme assay (human DGAT1 in Sf9 insect microsomes, 14C decanoyl CoA). The class given is biochemical. The conditions noted are these: enzyme expressed in insect microsomes; read-out: hDGAT1 IC50. How it is done:
as §2, §3

In data set [4] the test system is diet-induced-obese (DIO) mice. The data set can be described thus: Long-time (4-week) treatment in DIO mice. Type of data set: in vivo, C57BL/6J mice. The conditions noted are these: 4 weeks. On the procedure: The DIO mice were fed with high-fat diet during the 4-week treatment period. Mice were fasted for 4 hours prior to blood collection. Plasma glucose, insulin, triglyceride, and free fatty acid concentrations were determined by using Glucose CII Test Wako (Wako), ultra sensitive mouse ELISA (Morinaga, Yokohama, Japan), L type WAKO TG H, and HA test WAKO NEFA (Wako), respectively.

In data set [5] the test system is postprandial hyperlipidemia in mice. The experiment in a line: Postprandial hyperlipidemia in mice (corn oil load). The class given is in vivo, C57BL/6J mice. How it is done: Eight-week-old male C57BL/6J mice were divided into treatment groups, each consisting of 7–8 mice, based on the body weight for the purpose of simplification of dose calculation. […] Blood samples were collected 1, 2, and 3 h later, and the plasma triglyceride level was determined by using WAKO TG H (Wako, Osaka, Japan). The area under the curve (AUC) of plasma triglyceride (AUCtriglyceride) was calculated.

For data set [6], the system named is glucagon-like peptide-1 (GLP-1) secretion. The experiment in a line: GLP-1 secretion in mice after corn oil. The class given is in vivo. The conditions noted are these: oral 10 and 30 mg/kg, 2 h after corn oil. On the procedure: Mice were divided into treatment groups, each consisting of 6–8 mice, based on the body weight for the purpose of simplification of dose calculation. […] Blood samples were collected 2 h later, and the plasma GLP-1 level was determined by using Glucagon Like Peptide-1 (Active) ELISA Kit (Linco Research, Inc., St. Charles, MO).

Turning to `CC1(C)Oc2ncnc(N)c2N=C1c1ccc([C@H]2CC[C@H](CC(=O)O)CC2)cc1` [Compound A, 4-[4-(4-amino-2,7,7-trimethyl-7H-pyrimido[4,5-b][1], [4]oxazin-6-yl)phenyl]-trans-Cyclohexaneacetic acid], the “inhibition of triglyceride synthesis” value in the data set on mouse skin homogenates was “inhibited the cellular triglyceride synthesis”. The “inhibition of cellular triglyceride synthesis” value with HT-29 human colon cells is “significant inhibition was observed at 1 and 3 µM”. In data set [1], the Tmax was found to be 1 h. In [1] (means ± SD), the concentration at 24 h was found to be 24 ± 1.6 µM, the Kp is 0.32, the Cmax amounted to 240 ± 59 µM and the “C max in intestine” value worked out at 77 ± 37 µmol/kg. For the same compound, the “C max in skin” value in data set [1] (means ± SD) is 14 ± 0.62 µmol/kg. Also, the fraction unbound in [2] was 0.032. Further, in [3] (30 mg/kg once daily), the “injurious or inflammatory changes of the skin” value was “no injurious or inflammatory changes”. For the same compound, in data set [3] (30 mg/kg once daily, then withdrawal), the “recovery of skin aberrations after compound withdrawal” value was 2 weeks. Also, in [3], the “skin aberrations (histopathology)” value is “skin aberrations derived from atrophy of the sebaceous gland; also recorded: moderate skin aberrations”. This compound also showed a logD in the data set “Log D (lipophilicity)” of less than 0.9. Besides, the “inhibition of cellular triglyceride synthesis” value in the data set with HepG2 human liver cells was “at all the concentrations tested”.

In the case of `O=C(Nc1ccccc1)Nc1ccc(-c2ccc(C(=O)[C@@H]3CCC[C@H]3C(=O)O)cc2)cc1` [Compound B, (1R, 2R)-2-[[4′-[[(Phenylamino)carbonyl]amino][1,1′-biphenyl]-4-yl]carbonyl]cyclopentanecarboxylic acid], on mouse DGAT1, the IC50 came out at 15.5 nM. Besides, the “inhibition of triglyceride synthesis” value in the data set with mouse skin homogenates is given as “inhibited the cellular triglyceride synthesis”. In addition, on human DGAT1, the IC50 came to 8.4 nM. For the same compound, the “fatty liver (histological analysis)” value in data set [4] (10 or 30 mg/kg) was “attenuated fatty liver”. The body weight gain entry in data set [4] (oral 1, 3, 10 or 30 mg/kg twice daily) was “significant attenuation and significant reduction were observed at 10 mg/kg and 30 mg/kg, respectively”. Further, in [4] (oral twice daily), the “concentration of total-cholesterol in the liver” value was “significant reduction was observed at 30 mg/kg”, the “concentration of triglyceride in the liver” value was “significant reduction was observed at 30 mg/kg”, the liver weight entry is reported as “lack of differences in the liver weight among the groups” and the plasma glucose levels entry is recorded as “significant reduction was observed at 30 mg/kg”. Also, in [4] (oral twice daily), the plasma insulin concentrations entry is given as “tended to decrease”, the “weight of epididymal fat” value is listed as “significant reduction was observed at 30 mg/kg” and the “weight of mesenteric fat” value is “significant reduction was observed at 30 mg/kg”. The “inhibition of cellular triglyceride synthesis” value with HT-29 human colon cells is “significant inhibition was observed at 1 and 3 µM”. Besides, in [1], the Tmax amounted to 1 h. Further, in data set [1] (means ± SD), the concentration at 24 h is 19 ± 3.7 µM, the Kp turned out to be 10, the Cmax stood at 9.1 ± 2.3 µM and the “skin/IC50 (C max in skin/mDGAT1 IC50)” value worked out at 0.084±0.033. Also, in data set [1] (means ± SD), the “C max in intestine” value amounted to 92 ± 36 µmol/kg and the “C max in skin” value amounted to 1.3 ± 0.51 µmol/kg. For the same compound, in data set [1] (means ± SD, 30 mg/kg), the “Intestine/Plasma ratio at T max” value turned out to be 10±2.8; the “Intestine/Skin ratio at T max” value is 74 and 74±8.4. Besides, the fraction unbound in data set [2] came to 0.001. Besides, the “skin aberrations (histopathology)” value in [3] is “changes in the skin were not observed; also recorded: no skin aberrations”. Besides, in the data set “Log D (lipophilicity)”, the logD is less than 0.9. Moreover, in data set [5] (oral 0.3, 1, 3 or 10 mg/kg 12 h before 3 ml/kg corn oil), the “plasma triglyceride levels after corn oil” value was “reduced plasma triglyceride levels with a dose-dependent tendency”. For the same compound, the “dose of maximum efficacy on plasma triglyceride” value in [5] (oral, 12 h before corn oil) amounted to 10 mg/kg. Besides, the “plasma GLP-1 levels after corn oil administration” value in data set [6] is “increased plasma glucagon-like peptide-1 (GLP-1) levels”. Further, in the data set on HepG2 human liver cells, the “inhibition of cellular triglyceride synthesis” value is recorded as “at all the concentrations tested”.
